From PubChem BioAssay (NCI)
Values joined by “and” are separate entries in the source; they are usually repeats but may differ in a detail not shown here. Identical values can stand only once.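 How tested: cells in 96-well plates exposed to compound for 48 hours at five concentrations. GI50: concentration for 50% inhibition of growth. TGI: concentration producing complete growth inhibition.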

Tests used:
Test in all cases: NCI anticancer screen, dose series, 48 h
HCT-116 colon = tested on: HCT-116 colon
NCI-H460 lung = tested on: NCI-H460 lung
UACC-257 melanoma = tested on: UACC-257 melanoma
A498 renal = tested on: A498 renal
UO-31 renal = tested on: UO-31 renal
LOX IMVI melanoma = tested on: LOX IMVI melanoma
OVCAR-8 ovarian = tested on: OVCAR-8 ovarian
OVCAR-5 ovarian = tested on: OVCAR-5 ovarian
MDA-MB-231 breast = tested on: MDA-MB-231 breast
SNB-19 CNS = tested on: SNB-19 CNS
K-562 leukemia = tested on: K-562 leukemia
NCI-H23 lung = tested on: NCI-H23 lung
PC-3 prostate = tested on: PC-3 prostate
RXF 393 renal = tested on: RXF 393 renal
SF-268 CNS = tested on: SF-268 CNS
MOLT-4 leukemia = tested on: MOLT-4 leukemia
SF-539 CNS = tested on: SF-539 CNS
CAKI-1 renal = tested on: CAKI-1 renal
SR leukemia = tested on: SR leukemia
UACC-62 melanoma = tested on: UACC-62 melanoma
NCI/ADR-RES ovarian = tested on: NCI/ADR-RES ovarian
CCRF-CEM leukemia = tested on: CCRF-CEM leukemia
HCC-2998 colon = tested on: HCC-2998 colon
HOP-92 NSCLC = tested on: HOP-92 NSCLC
HS 578T breast = tested on: HS 578T breast
MCF7 breast = tested on: MCF7 breast
COLO 205 colon = tested on: COLO 205 colon
IGROV1 ovarian = tested on: IGROV1 ovarian
SK-OV-3 ovarian = tested on: SK-OV-3 ovarian
EKVX NSCLC = tested on: EKVX NSCLC
SNB-75 CNS = tested on: SNB-75 CNS
HL-60(TB) leukemia = tested on: HL-60(TB) leukemia
SW-620 colon = tested on: SW-620 colon
MDA-MB-435 = tested on: MDA-MB-435
OVCAR-4 ovarian = tested on: OVCAR-4 ovarian
ACHN renal = tested on: ACHN renal
U251 CNS = tested on: U251 CNS
BT-549 breast = tested on: BT-549 breast
HCT-15 colon = tested on: HCT-15 colon
HOP-62 NSCLC = tested on: HOP-62 NSCLC
M14 melanoma = tested on: M14 melanoma
NCI-H522 lung = tested on: NCI-H522 lung
HT29 colon = tested on: HT29 colon
DU-145 prostate = tested on: DU-145 prostate
SK-MEL-5 melanoma = tested on: SK-MEL-5 melanoma
SK-MEL-2 melanoma = tested on: SK-MEL-2 melanoma
SF-295 CNS = tested on: SF-295 CNS
T-47D breast = tested on: T-47D breast
MALME-3M melanoma = tested on: MALME-3M melanoma
NCI-H226 lung = tested on: NCI-H226 lung
RPMI-8226 leukemia = tested on: RPMI-8226 leukemia
KM12 colon = tested on: KM12 colon
TK-10 renal = tested on: TK-10 renal
A549 NSCLC = tested on: A549 NSCLC
SK-MEL-28 melanoma = tested on: SK-MEL-28 melanoma
786-0 renal = tested on: 786-0 renal
OVCAR-3 ovarian = tested on: OVCAR-3 ovarian
SN12C renal = tested on: SN12C renal

SMILES: O=C(NNc1nc2cc(F)c(F)cc2n2cccc12)c1cccnn1
- GI50 (HCT-116 colon): 207 nM and 173 nM
- TGI (HCT-116 colon): 30000 nM and 11900 nM
- GI50 (NCI-H460 lung): 134 nM and 81 nM
- TGI (NCI-H460 lung): 3650 nM and 1960 nM
- GI50 (UACC-257 melanoma): 802 nM and 364 nM
- TGI (UACC-257 melanoma): 2890 nM and 11000 nM
- GI50 (A498 renal): 614 nM and 382 nM
- TGI (A498 renal): 3260 nM and 2450 nM
- GI50 (UO-31 renal): 105 nM and 41.4 nM
- TGI (UO-31 renal): 3970 nM and 2340 nM
- GI50 (LOX IMVI melanoma): 247 nM and 156 nM
- TGI (LOX IMVI melanoma): 1090 nM and 5270 nM
- GI50 (OVCAR-8 ovarian): 322 nM and 269 nM
- TGI (OVCAR-8 ovarian): 30000 nM and > 100000 nM
- GI50 (OVCAR-5 ovarian): 693 nM and 2310 nM
- TGI (OVCAR-5 ovarian): 30000 nM and 32300 nM
- GI50 (MDA-MB-231 breast): 559 nM and 750 nM
- TGI (MDA-MB-231 breast): 30000 nM and 54700 nM
- GI50 (SNB-19 CNS): 394 nM and 434 nM
- TGI (SNB-19 CNS): 30000 nM and > 100000 nM
- GI50 (K-562 leukemia): 374 nM and 323 nM
- TGI (K-562 leukemia): 30000 nM and 3780 nM
- GI50 (NCI-H23 lung): 654 nM
- TGI (NCI-H23 lung): 50800 nM
- GI50 (PC-3 prostate): 201 nM and 419 nM
- GI50 (RXF 393 renal): 700 nM and 245 nM
- TGI (RXF 393 renal): 4130 nM and 13200 nM
- GI50 (SF-268 CNS): 364 nM and 274 nM
- TGI (SF-268 CNS): 30000 nM and > 100000 nM
- GI50 (MOLT-4 leukemia): 178 nM and 136 nM
- GI50 (SF-539 CNS): 349 nM and 339 nM
- TGI (SF-539 CNS): 9180 nM and 8100 nM
- GI50 (CAKI-1 renal): 261 nM and 251 nM
- TGI (CAKI-1 renal): 30000 nM and 11200 nM
- GI50 (SR leukemia): 175 nM and 48.6 nM
- GI50 (UACC-62 melanoma): 331 nM and 388 nM
- TGI (UACC-62 melanoma): 2290 nM and 8830 nM
- GI50 (NCI/ADR-RES ovarian): 205 nM and 207 nM
- TGI (NCI/ADR-RES ovarian): 2880 nM and 3560 nM
- GI50 (CCRF-CEM leukemia): 76.5 nM
- TGI (CCRF-CEM leukemia): 1010 nM
- GI50 (HCC-2998 colon): 589 nM and 474 nM
- TGI (HCC-2998 colon): 30000 nM and 19500 nM
- GI50 (HOP-92 NSCLC): 398 nM
- TGI (HOP-92 NSCLC): 8820 nM
- GI50 (HS 578T breast): 1400 nM and 1040 nM
- TGI (HS 578T breast): 30000 nM and 79000 nM
- GI50 (MCF7 breast): 408 nM and 304 nM
- TGI (MCF7 breast): 4310 nM and 2830 nM
- GI50 (COLO 205 colon): 384 nM and 321 nM
- TGI (COLO 205 colon): 30000 nM and 19100 nM
- GI50 (IGROV1 ovarian): 227 nM and 273 nM
- TGI (IGROV1 ovarian): 5020 nM and 4690 nM
- GI50 (SK-OV-3 ovarian): 300 nM and 326 nM
- TGI (SK-OV-3 ovarian): 11400 nM and 17900 nM
- GI50 (EKVX NSCLC): 255 nM and 190 nM
- TGI (EKVX NSCLC): 30000 nM and 16100 nM
- GI50 (SNB-75 CNS): 267 nM and 1910 nM
- TGI (SNB-75 CNS): 22000 nM and 25400 nM
- GI50 (HL-60(TB) leukemia): 570 nM and 231 nM
- GI50 (SW-620 colon): 231 nM and 354 nM
- TGI (SW-620 colon): 30000 nM and 60300 nM
- GI50 (MDA-MB-435): 1160 nM and 811 nM
- TGI (MDA-MB-435): 30000 nM and 19900 nM
- GI50 (OVCAR-4 ovarian): 209 nM and 201 nM
- TGI (OVCAR-4 ovarian): 30000 nM and > 100000 nM
- GI50 (ACHN renal): 158 nM and 134 nM
- TGI (ACHN renal): 8320 nM and 6530 nM
- GI50 (U251 CNS): 229 nM and 172 nM
- TGI (U251 CNS): 30000 nM and 36100 nM
- GI50 (BT-549 breast): 1400 nM and 271 nM
- TGI (BT-549 breast): 30000 nM and 24800 nM
- GI50 (HCT-15 colon): 123 nM and 46.8 nM
- TGI (HCT-15 colon): 30000 nM and 38300 nM
- GI50 (HOP-62 NSCLC): 275 nM and 99.4 nM
- TGI (HOP-62 NSCLC): 9220 nM and 11300 nM
- GI50 (M14 melanoma): 309 nM and 197 nM
- TGI (M14 melanoma): 30000 nM and 11500 nM
- GI50 (NCI-H522 lung): 747 nM and 262 nM
- GI50 (HT29 colon): 644 nM and 542 nM
- TGI (HT29 colon): 30000 nM and 29200 nM
- GI50 (DU-145 prostate): 346 nM and 579 nM
- TGI (DU-145 prostate): 30000 nM and 16100 nM
- GI50 (SK-MEL-5 melanoma): 491 nM and 271 nM
- TGI (SK-MEL-5 melanoma): 3350 nM and 2000 nM
- GI50 (SK-MEL-2 melanoma): 963 nM and 1490 nM
- TGI (SK-MEL-2 melanoma): 30000 nM and 15500 nM
- GI50 (SF-295 CNS): 202 nM and 97.5 nM
- TGI (SF-295 CNS): 5230 nM and 6170 nM
- GI50 (T-47D breast): 838 nM and 293 nM
- TGI (T-47D breast): 24500 nM and 9750 nM
- GI50 (MALME-3M melanoma): 771 nM and 811 nM
- TGI (MALME-3M melanoma): 28700 nM
- GI50 (NCI-H226 lung): 387 nM and 643 nM
- TGI (NCI-H226 lung): 14700 nM and 12100 nM
- GI50 (RPMI-8226 leukemia): 305 nM and 338 nM
- TGI (RPMI-8226 leukemia): 1150 nM and 7720 nM
- GI50 (KM12 colon): 378 nM and 336 nM
- TGI (KM12 colon): 30000 nM and 33300 nM
- GI50 (TK-10 renal): 263 nM and 294 nM
- TGI (TK-10 renal): 30000 nM and 29000 nM
- GI50 (A549 NSCLC): 316 nM and 249 nM
- TGI (A549 NSCLC): 30000 nM and 15000 nM
- GI50 (SK-MEL-28 melanoma): 504 nM and 515 nM
- TGI (SK-MEL-28 melanoma): 30000 nM and 22400 nM
- GI50 (786-0 renal): 669 nM and 296 nM
- TGI (786-0 renal): 30000 nM and 12900 nM
- GI50 (OVCAR-3 ovarian): 227 nM and 243 nM
- TGI (OVCAR-3 ovarian): 3710 nM and 13200 nM
- GI50 (SN12C renal): 468 nM and 646 nM
- TGI (SN12C renal): 30000 nM and 31400 nM
